From patent US20120029187A1, “HALOALKYLSULFONANILIDE DERIVATIVE” (Nissan Chemical Industries, Ltd., priority 2009, published 2012)

Columns and labels:
Assay type in all cases: in vivo
[1] = tested on: common lambsquater; assay: Test Example 3: herbicidal effects in soil treatment; details: dose 3.2 g/a
In short: (§1)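 Seeds were sown in sterilized diluvial soil and covered with about 1.5 cm of soil. Compounds, formulated as emulsifiable concentrates and diluted with water, were sprayed evenly over the soil surface at set doses in g/a. Herbicidal effect was scored on a rating scale three weeks later.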

[2] = tested on: water foxtail; assay: as above; details: dose 3.2 g/a
In short: as §1

[3] = tested on: giant foxtail; assay: as above; details: dose 3.2 g/a
In short: as §1

[4] = tested on: large crabgrass; assay: as above; details: dose 3.2 g/a
In short: as §1

[5] = tested on: common ragweed; assay: as above; details: dose 3.2 g/a
In short: as §1

[6] = tested on: redroot pigweed; assay: as above; details: dose 3.2 g/a
In short: as §1

[7] = tested on: barnyardgrass; assay: as above; details: dose 3.2 g/a
In short: as §1

[8] = tested on: common chickweed; assay: as above; details: dose 3.2 g/a
In short: as §1

[9] = tested on: Italian ryegrass; assay: as above; details: dose 3.2 g/a
In short: as §1

[10] = tested on: velvetleaf; assay: as above; details: dose 3.2 g/a
In short: as §1

[11] = tested on: posumbu knotweed; assay: as above; details: dose 3.2 g/a
In short: as §1

[12] = tested on: common lambsquater; assay: Test Example 4: herbicidal effect in foliage treatment; details: dose 3.2 g/a, three weeks after application
In short: (§2)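 14-day greenhouse-grown plants (25–30° C) sprayed on foliage with diluted EC; dose as g/a; effect graded after 3 weeks.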

[13] = tested on: water foxtail; assay: as above; details: dose 3.2 g/a, three weeks after application
In short: as §2

[14] = tested on: giant foxtail; assay: as above; details: dose 3.2 g/a, three weeks after application
In short: as §2

[15] = tested on: large crabgrass; assay: as above; details: dose 3.2 g/a, three weeks after application
In short: as §2

[16] = tested on: common ragweed; assay: as above; details: dose 3.2 g/a, three weeks after application
In short: as §2

[17] = tested on: redroot pigweed; assay: as above; details: dose 3.2 g/a, three weeks after application
In short: as §2

[18] = tested on: barnyardgrass; assay: as above; details: dose 3.2 g/a, three weeks after application
In short: as §2

[19] = tested on: common chickweed; assay: as above; details: dose 3.2 g/a, three weeks after application
In short: as §2

[20] = tested on: Italian ryegrass; assay: as above; details: dose 3.2 g/a, three weeks after application
In short: as §2

[21] = tested on: velvetleaf; assay: as above; details: dose 3.2 g/a, three weeks after application
In short: as §2

[22] = tested on: beadstraw; assay: as above; details: dose 3.2 g/a, three weeks after application
In short: as §2

[23] = tested on: posumbu knotweed; assay: as above; details: dose 3.2 g/a, three weeks after application
In short: as §2

[24] = tested on: transplanted rice; assay: Test Example 1: preemergence treatment under submerged conditions, effect on crop; details: dose 2.52 g/a
In short: (§3)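 Alluvial soil was flooded to 4 cm, sown with barnyardgrass, bulrush and ducksalad, and planted with 2.5-leaf rice seedlings. On the seeding day, water-diluted emulsifiable concentrates were applied to the water surface at set doses (g/a). After three weeks in a 25 to 30° C. greenhouse, mortality was scored 0–5.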

[25] = tested on: bulrush; assay: Test Example 2: herbicidal effects during the vegetation period under submerged conditions; details: treatment during the vegetation period under submerged conditions; dose 2.52 g/a
In short: (§4)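 Barnyardgrass, bulrush and ducksalad were co-sown in alluvial soil flooded to 4 cm and grown in a greenhouse at 25 to 30° C. At the 1- or 2-leaf stage, water-diluted emulsifiable concentrates went onto the water surface at set doses (g/a). Herbicidal effect was scored three weeks later on a graded scale.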

[26] = tested on: ducksalad; assay: as above; details: treatment during the vegetation period under submerged conditions; dose 2.52 g/a
In short: as §4

[27] = tested on: barnyardgrass; assay: as above; details: treatment during the vegetation period under submerged conditions; dose 2.52 g/a
In short: as §4

[28] = tested on: bulrush; assay: Test Example 1: herbicidal effects in preemergence treatment under submerged conditions; details: dose 2.52 g/a
In short: as §3

[29] = tested on: ducksalad; assay: as above; details: dose 2.52 g/a
In short: as §3

[30] = tested on: barnyardgrass; assay: as above; details: dose 2.52 g/a
In short: as §3

SMILES | L: common lambsquater, herbicidal effect (evaluation scale 0-5) [1] | G: water foxtail, herbicidal effect (evaluation scale 0-5) [2] | E: giant foxtail, herbicidal effect (evaluation scale 0-5) [3] | D: large crabgrass, herbicidal effect (evaluation scale 0-5) [4] | J: common ragweed, herbicidal effect (evaluation scale 0-5) [5] | K: redroot pigweed, herbicidal effect (evaluation scale 0-5) [6] | A: barnyardgrass, herbicidal effect (evaluation scale 0-5) [7] | N: common chickweed, herbicidal effect (evaluation scale 0-5) [8] | H: Italian ryegrass, herbicidal effect (evaluation scale 0-5) [9] | I: velvetleaf, herbicidal effect (evaluation scale 0-5) [10] | M: posumbu knotweed, herbicidal effect (evaluation scale 0-5) [11] | L: common lambsquater, herbicidal effect [12] | G: water foxtail, herbicidal effect [13] | E: giant foxtail, herbicidal effect [14] | D: large crabgrass, herbicidal effect [15] | J: common ragweed, herbicidal effect [16] | K: redroot pigweed, herbicidal effect [17] | A: barnyardgrass, herbicidal effect [18] | N: common chickweed, herbicidal effect [19] | H: Italian ryegrass, herbicidal effect [20] | other results
CC1(CC(F)(F)F)CC(=O)N(Cc2ccccc2NS(=O)(=O)C(F)(F)F)CO1 (stereo not drawn) [II-51] | 0 (mortality of less than 5% (almost ineffective)) | 5 (mortality of 90% or above (nearly complete death)) | 4 (mortality of at least 70% and less than 90%) | 5 (mortality of 90% or above (nearly complete death)) | 4 (mortality of at least 70% and less than 90%) | 0 (mortality of less than 5% (almost ineffective)) | 5 (mortality of 90% or above (nearly complete death)) | 5 (mortality of 90% or above (nearly complete death)) | 3 (mortality of at least 40% and less than 70%) | 5 (mortality of 90% or above (nearly complete death)) | 5 (mortality of 90% or above (nearly complete death)) | 3 (mortality of at least 40% and less than 70%) | 5 (mortality of 90% or above (nearly complete death)) | 4 (mortality of at least 70% and less than 90%) | 4 (mortality of at least 70% and less than 90%) | 3 (mortality of at least 40% and less than 70%) | 0 (mortality of less than 5% (almost ineffective)) | 5 (mortality of 90% or above (nearly complete death)) | 5 (mortality of 90% or above (nearly complete death)) | 3 (mortality of at least 40% and less than 70%) | I: velvetleaf, herbicidal effect [21]: 4 (mortality of at least 70% and less than 90%); O: beadstraw, herbicidal effect [22]: 4 (mortality of at least 70% and less than 90%); M: posumbu knotweed, herbicidal effect [23]: 5 (mortality of 90% or above (nearly complete death)); a: transplanted rice, effect on crop (evaluation scale 0-5) [24]: 0 (mortality of less than 5% (almost ineffective)); B: bulrush, herbicidal effect (evaluation scale 0-5) [25]: 4 (mortality of at least 70% and less than 90%); C: ducksalad, herbicidal effect (evaluation scale 0-5) [26]: 5 (mortality of 90% or above (nearly complete death)); A: barnyardgrass, herbicidal effect (evaluation scale 0-5) [27]: 5 (mortality of 90% or above (nearly complete death)); B: bulrush, herbicidal effect (evaluation scale 0-5) [28]: 5 (mortality of 90% or above (nearly complete death)); C: ducksalad, herbicidal effect (evaluation scale 0-5) [29]: 5 (mortality of 90% or above (nearly complete death)); A: barnyardgrass, herbicidal effect (evaluation scale 0-5) [30]: 5 (mortality of 90% or above (nearly complete death))
CCC(=O)N(c1ccccc1CN1COC(C)(CC)CC1=O)S(=O)(=O)C(F)(F)F (stereo not drawn) [II-41] | 3 (mortality of at least 40% and less than 70%) | 5 (mortality of 90% or above (nearly complete death)) | 4 (mortality of at least 70% and less than 90%) | 4 (mortality of at least 70% and less than 90%) | 4 (mortality of at least 70% and less than 90%) | 2 (mortality of at least 20% and less than 40%) | 5 (mortality of 90% or above (nearly complete death)) | 5 (mortality of 90% or above (nearly complete death)) | 5 (mortality of 90% or above (nearly complete death)) | 5 (mortality of 90% or above (nearly complete death)) | 4 (mortality of at least 70% and less than 90%) | 2 (mortality of at least 20% and less than 40%) | 5 (mortality of 90% or above (nearly complete death)) | 4 (mortality of at least 70% and less than 90%) | 1 (mortality of at least 5% and less than 20%) | 3 (mortality of at least 40% and less than 70%) | 0 (mortality of less than 5% (almost ineffective)) | 5 (mortality of 90% or above (nearly complete death)) | 3 (mortality of at least 40% and less than 70%) | 4 (mortality of at least 70% and less than 90%) | I: velvetleaf, herbicidal effect [21]: 5 (mortality of 90% or above (nearly complete death)); O: beadstraw, herbicidal effect [22]: 4 (mortality of at least 70% and less than 90%); M: posumbu knotweed, herbicidal effect [23]: 0 (mortality of less than 5% (almost ineffective)); a: transplanted rice, effect on crop (evaluation scale 0-5) [24]: 0 (mortality of less than 5% (almost ineffective)); B: bulrush, herbicidal effect (evaluation scale 0-5) [25]: 5 (mortality of 90% or above (nearly complete death)); C: ducksalad, herbicidal effect (evaluation scale 0-5) [26]: 5 (mortality of 90% or above (nearly complete death)); A: barnyardgrass, herbicidal effect (evaluation scale 0-5) [27]: 5 (mortality of 90% or above (nearly complete death)); B: bulrush, herbicidal effect (evaluation scale 0-5) [28]: 5 (mortality of 90% or above (nearly complete death)); C: ducksalad, herbicidal effect (evaluation scale 0-5) [29]: 5 (mortality of 90% or above (nearly complete death)); A: barnyardgrass, herbicidal effect (evaluation scale 0-5) [30]: 5 (mortality of 90% or above (nearly complete death))
